Compound: COc1cc(Nc2c(C#N)cnc3cc(OCCCN4CCN(C)CC4)c(OC)cc23)c(Cl)cc1Cl [Bosutinib]
Experiment: relative viability (nuclei count vs DMSO), 5 days (fraction); higher = more cells survive
How it was run: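 Viability was read as treated-well nuclei divided by vehicle-well nuclei, using the median across plates. Lung cancer cell lines in 1536-well plates were kept overnight at 37 °C, pinned with five √10-spaced library-drug doses, and after 5 days were Hoechst-stained, imaged at 4× and counted in MetaXpress. Plates passed only with control CV below 25% and at least one doubling.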

Row | Cell Line | relative viability (0.01 µM) | relative viability (0.03162 µM) | relative viability (0.1 µM) | relative viability (1 µM)
1 | 201T | 1 | 0.991 | 1.02 | 0.906
2 | A549 | 1 | 1.04 | 1.01 | 0.939
3 | A-427 | 0.979 | 1.04 | 1.03 | 0.926
4 | ABC-1 | 0.976 | 0.99 | 0.854 | 0.88
5 | BEN | 0.952 | 0.984 | 1.08 | 0.765
6 | CAL-12T | 1.06 | 0.96 | 0.95 | 0.914
7 | COR-L23 | 1.05 | 0.972 | 1.07 | 1.03
8 | COR-L 105 | 0.974 | 0.861 | 0.914 | 0.735
9 | ChaGo-K-1 | 0.966 | 0.976 | 1.01 | 0.997
10 | EKVX | 0.927 | 0.971 | 0.952 | 0.85
11 | EMC-BAC-2 | 0.95 | 1.09 | 1.09 | 0.928
12 | EPLC-272H | 0.982 | 1.01 | 1.12 | 0.911
13 | H3255 | 0.931 | 0.978 | 0.995 | 0.594
14 | HARA | 1.07 | 1.02 | 0.993 | 0.791
15 | HCC-15 | 1.05 | 1.03 | 1.06 | 0.926
16 | HCC-44 | 0.99 | 1.02 | 1.02 | 1.01
17 | HCC-78 | 0.906 | 1.2 | 1.08 | 0.902
18 | HCC-366 | 0.991 | 1 | 0.974 | 0.785
19 | HCC-827 | 1.07 | 1.05 | 1.09 | 0.649
20 | HOP-62 | 0.977 | 1.01 | 0.959 | 1.05
21 | LC-2-ad | 0.961 | 1.08 | 1.06 | 1
22 | LCLC-97TM1 | 1.03 | 0.969 | 1.06 | 1.04
23 | LCLC-103H | 1.01 | 0.999 | 0.991 | 0.996
24 | LK-2 | 0.942 | 0.972 | 0.929 | 0.867
25 | LOU-NH91 | 0.941 | 0.999 | 0.971 | 0.779

Row | Cell Line | relative viability (0.01 µM) | relative viability (0.03162 µM) | relative viability (0.1 µM) | relative viability (1 µM)
26 | LU99A | 0.958 | 1.02 | 1.04 | 0.606
27 | LXF-289 | 1 | 1.01 | 1.03 | 1.01
28 | NCI-H23 | 1.13 | 0.997 | 1.04 | 0.872
29 | NCI-H322M | 0.889 | 0.985 | 0.98 | 0.576
30 | NCI-H358 | 0.964 | 0.913 | 0.961 | 0.685
31 | NCI-H441 | 1.1 | 1.1 | 1.31 | 1.03
32 | NCI-H460 | 1.02 | 0.976 | 0.967 | 0.875
33 | NCI-H520 | 1.02 | 1.11 | 0.953 | 0.775
34 | NCI-H522 | 0.935 | 1.03 | 1.05 | 0.895
35 | NCI-H596 | 1.11 | 1.03 | 0.984 | 0.863
36 | NCI-H647 | 1.07 | 0.933 | 0.928 | 0.627
37 | NCI-H650 | 1 | 1.06 | 1.08 | 1.11
38 | NCI-H661 | 0.97 | 1.09 | 1.06 | 0.731
39 | NCI-H727 | 0.911 | 0.929 | 0.985 | 0.632
40 | NCI-H838 | 0.975 | 0.942 | 0.953 | 0.693
41 | NCI-H1355 | 0.999 | 1.03 | 1.05 | 0.931
42 | NCI-H1395 | 0.932 | 0.914 | 1.01 | 0.817
43 | NCI-H1437 | 1.03 | 0.974 | 1.02 | 0.912
44 | NCI-H1650 | 1.01 | 0.846 | 0.778 | 0.783
45 | NCI-H1651 | 0.997 | 0.966 | 1.03 | 0.988
46 | NCI-H1666 | 0.988 | 1.04 | 0.924 | 1.02
47 | NCI-H1703 | 0.869 | 0.972 | 0.835 | 0.468
48 | NCI-H1734 | 1.06 | 1.01 | 0.965 | 0.892
49 | NCI-H1755 | 1.01 | 1.09 | 1.03 | 0.951
50 | NCI-H1792 | 0.822 | 1.08 | 0.993 | 0.84

Row | Cell Line | relative viability (0.01 µM) | relative viability (0.03162 µM) | relative viability (0.1 µM) | relative viability (1 µM)
51 | NCI-H1793 | 0.916 | 0.84 | 0.791 | 0.588
52 | NCI-H1915 | 0.989 | 1.09 | 1.1 | 1.01
53 | NCI-H1944 | 0.965 | 0.92 | 0.913 | 0.888
54 | NCI-H1975 | 0.992 | 0.958 | 0.966 | 0.81
55 | NCI-H1993 | 0.977 | 0.9 | 0.987 | 0.936
56 | NCI-H2009 | 1.07 | 1.05 | 1.06 | 0.865
57 | NCI-H2023 | 1.02 | 0.943 | 0.948 | 0.852
58 | NCI-H2085 | 0.969 | 0.938 | 0.919 | 0.928
59 | NCI-H2087 | 1.07 | 1.04 | 0.951 | 1.08
60 | NCI-H2126 | 0.972 | 0.997 | 0.969 | 0.994
61 | NCI-H2170 | 1.01 | 0.974 | 1.01 | 0.926
62 | NCI-H2228 | 0.906 | 0.918 | 0.989 | 0.882
63 | NCI-H2342 | 0.961 | 0.99 | 0.926 | 1.21
64 | NCI-H2347 | 1.03 | 1.09 | 0.992 | 1.06
65 | NCI-H2405 | 1.05 | 1.1 | 1.03 | 0.801
66 | NCI-H3122 | 1.02 | 1.02 | 1.01 | 0.993
67 | PC-3 [JPC-3] | 1.04 | 1.07 | 1.06 | 0.745
68 | PC-14 | 1.03 | 0.977 | 0.871 | 0.336
69 | RERF-LC-KJ | 0.997 | 0.971 | 0.978 | 0.948
70 | SK-LU-1 | 0.995 | 1.06 | 1.05 | 0.629
71 | SK-MES-1 | 1.02 | 1.01 | 1.01 | 0.815
72 | SW 1573 | 1.05 | 1.02 | 0.941 | 0.924
73 | UMC-11 | 1 | 1.01 | 0.956 | 0.912

Reference: the supplement of paper PMC10307832
